From patent US8008303B2, “Biphenyl derivatives and their use in treating hepatitis C” (AstraZeneca AB, priority 2005, dated 2011)
Where two headings read alike, the source gives them in different places.

Columns and labels:
[1] = system: HCV replicon cells Huh 9B; assay: HCV replicon assay (luciferase readout); type: cell-based
Outline: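 Compounds, made up at twice final strength (final DMSO 1%), were added to subgenomic replicon cells one day after plating. Incubation then ran 72 h at 37 °C, 5% CO2, without G418. Replication was quantified as firefly luciferase luminescence in lysed cells, with cytotoxicity assessed on a duplicate clear plate.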

[2] = system: HCV replicon cells Huh 9B; type: cell-based
[3] = Hepatitis C virus, 72 h, concentration reducing replicon level (luciferase activity) by 50% vs untreated cell control, 72 h incubation
[4] = concentration reducing total cell area by 50% relative to DMSO controls, methylene blue, absorbance 620 nm, 72 h incubation

Compound	IC50 [1, 3]	TD50 [2, 4]	IC50 [1]	TD50 [2]
Cc1ccc(NC(=O)C2CC2)cc1-c1ccc(C(=O)Nc2ccc(CN3CCCC3)cc2)cc1 [Example 230, 5′-(Cyclopropanecarbonyl-amino)-2′-methyl-biphenyl-4-carboxylic acid (4-pyrrolidin-1-ylmethyl-phenyl)-amide]	1000 to 5000 nM	* (* < 50 μM)		
Cc1ccc(NC(=O)C2CC2)cc1-c1ccc(C(=O)Nc2ccc(CN3CCCCC3)cc2)cc1 [Example 228, 5′-(Cyclopropanecarbonyl-amino)-2′-methyl-biphenyl-4-carboxylic acid (4-piperidin-1-ylmethyl-phenyl)-amide]	1000 to 5000 nM	* (* < 50 μM)		
Cc1ccc(C(=O)Nc2ccc(N3CCOCC3)cc2)cc1-c1ccc(C(=O)Nc2cccc(OC(F)(F)F)c2)cc1 [Example 25, 6-Methyl-biphenyl-3,4′-dicarboxylic acid 3-[(4-morpholin-4-yl-phenyl)-amide] 4′-[(3-trifluoromethoxy-phenyl)-amide]]			1000 to 5000 nM	* (key: * < 50 μM; ** > 50 μM)
CCCS(=O)(=O)N1CCN(Cc2ccc(NC(=O)c3ccc(-c4cc(S(=O)(=O)Nc5ccc(N6CCOCC6)cc5)ccc4OC)cc3)cc2)CC1 [Example 248, 2′-Methoxy-5′-(4-morpholin-4-yl-phenylsulfamoyl)-biphenyl-4-carboxylic acid [4-(4-propane-1-sulfonyl-piperazin-1-ylmethyl)-phenyl]-amide]	< 1000 nM	* (* < 50 μM)		
CCc1nnc(NC(=O)c2ccc(C)c(-c3ccc(C(=O)Nc4ccc(CN5CCS(=O)(=O)CC5)cc4)cc3)c2)s1 [Example 143, 6-Methyl-biphenyl-3,4′-dicarboxylic acid 4′-{[4-(1,1-dioxo-1lambda*6*-thiomorpholin-4-ylmethyl)-phenyl]-amide} 3-[(5-ethyl-[1,3,4]thiadiazol-2-yl)-amide]]			1000 to 5000 nM	* (key: * < 50 μM; ** > 50 μM)
CCCS(=O)(=O)N1CCN(Cc2ccc(NC(=O)c3ccc(-c4cc(C(=O)Nc5ccc(N6CCOCC6)cc5)ccc4OC)cc3)cc2)CC1 [Example 257, 6-Methoxy-biphenyl-3,4′-dicarboxylic acid 3-[(4-morpholin-4-yl-phenyl)-amide] 4′-({4-[4-(propane-1-sulfonyl)-piperazin-1-ylmethyl]-phenyl}-amide)]		* (* < 50 μM)	< 1000 nM	
COc1ccc(NC(=O)c2ccc(-c3cc(C(=O)Nc4ccc(N5CCOCC5)cc4)ccc3C)cc2)cc1OC [Example 34, 6-Methyl-biphenyl-3,4′-dicarboxylic acid 4′-[(3,4-dimethoxy-phenyl)-amide] 3-[(4-morpholin-4-yl-phenyl)-amide]]			1000 to 5000 nM	** (key: * < 50 μM; ** > 50 μM)
Cc1ccc(C(=O)Nc2ccc(N3CCOCC3)cc2)cc1-c1ccc(C(=O)NCCc2cnc[nH]2)cc1 [Example 13, 6-Methyl-biphenyl-3,4′-dicarboxylic acid 4′-{[2-(3H -imidazol-4-yl)-ethyl]-amide} 3-[(4-morpholin-4-yl-phenyl)-amide]]			> 5000 nM	* (key: * < 50 μM; ** > 50 μM)
Cc1ccc(C(=O)Nc2ccc(N3CCOCC3)cc2)cc1-c1ccc(C(=O)Nc2ccc(CC#N)cc2)cc1 [Example 39, 6-Methyl-biphenyl-3,4′-dicarboxylic acid 4′-[(4-cyanomethyl-phenyl)-amide] 3-[(4-morpholin-4-yl-phenyl)-amide]]			1000 to 5000 nM	* (key: * < 50 μM; ** > 50 μM)
Cc1ccc(C(=O)Nc2ccc(N3CCOCC3)cc2)cc1-c1ccc(C(=O)NCc2ccccc2Sc2ccccc2CO)cc1 [Example 49, 6-Methyl-biphenyl-3,4′-dicarboxylic acid 4′-[2-(2-hydroxymethyl-phenylsulfanyl)-benzylamide] 3-[(4-morpholin-4-yl-phenyl)-amide]]			< 1000 nM	** (key: * < 50 μM; ** > 50 μM)
Cc1ccc(NC(=O)C2CCCCC2)cc1-c1ccc(C(=O)Nc2ccc(CN3CCS(=O)(=O)CC3)cc2)cc1 [Example 158, 5′-(Cyclohexanecarbonyl-amino)-2′-methyl-biphenyl-4-carboxylic acid [4-(1,1-dioxo-1lambda*6*-thiomorpholin-4-ylmethyl)-phenyl]-amide]	< 1000 nM	* (* < 50 μM)		
